Literature values as cited in patent US7935500B2, “Identifying calcineurin activators for treatment of schizophrenia” (Massachusetts Institute of Technology, priority 2002, dated 2011).

Assays:
ryanodine receptor [1] = conditions: literature study [28]
ryanodine receptor [2] = conditions: literature study [28]; remark: listed apart in the source
IP3 receptors [3] = conditions: literature studies [29], [30]
IP3 receptors [4] = conditions: literature studies [29], [30]; remark: listed apart in the source

Compound | effect on binding of [3H]-ryanodine to membranes (ryanodine receptor [1]) | effect on probability of the channel being open (calcium influx) (ryanodine receptor [2]) | effect on binding of [3H]-IP3 to membranes (IP3 receptors [3]) | effect on calcium influx (IP3 receptors [4])
Cc1ccc(C(=O)Nc2ccc(S(=O)(=O)O)c3cc(S(=O)(=O)O)cc(S(=O)(=O)O)c23)cc1NC(=O)c1cccc(NC(=O)Nc2cccc(C(=O)Nc3cc(C(=O)Nc4ccc(S(=O)(=O)O)c5cc(S(=O)(=O)O)cc(S(=O)(=O)O)c45)ccc3C)c2)c1 [suramin] | increase binding of [3H]-ryanodine to membranes | increase the probability of the channel being open |  | 
CCN(CC)CCCC(C)Nc1ccnc2cc(Cl)ccc12 (stereo not shown) [chloroquine] |  |  | decrease binding of [3H]-IP3 to membranes | decrease calcium influx
